From patent US20080008652A1, “Methods and compositions for mediation of immune responses and adjuvant activity” (The Regents of the University of Michigan, priority 2006, published 2008)

Experiments:
[1] = test system: peritoneal macrophages and bone marrow-derived macrophages (BMDM); test: Cytokine secretion (IL-1β, IL-18, TNFα, IL-6) by stimulated macrophages, ELISA; format: cell-based, mouse; conditions: for secretion of IL-1β with brief ATP treatment: ligand 16 h, then 2 mM ATP 30 min; for requirement of endosomal acidification for IL-1β secretion: FIG. 12
[2] = test system: BMDM; test: Cooperation of low-dose LPS with microbial ligands for IL-1β secretion; format: cell-based, mouse; conditions: for synergy with LPS for the secretion of IL-1β: WT BMDM, 10 ng ml−1 LPS and 10 ng ml−1 ligand, 24 h
Procedure: Measurements of cytokines. BMDM and peritoneal macrophages were prepared as previously described. Cells were stimulated with various microbial and synthetic ligands for 24 h and the supernatants were analyzed for IL-1β, IL-18, TNFα and IL-6 secretion. The following ligand concentrations were used: FLS-1, Pam3CSKKK4, LPS, lipoteichoic acid, lipid A and MDP were used at 1 μg ml^−1. For analysis of cooperation of LPS with various ligands, 10 ng ml^−1 of LPS and 10 ng ml^−1 of various ligands were used. In some experiments, the macrophages were stimulated with ligands for 16 h and then with medium containing 2 mM ATP (Sigma) for 30 min, washed, and cultured for an additional 5 h. Mouse cytokines were measured in culture supernatants with enzyme-linked immunoabsorbent assay (ELISA) kits (R and D Systems, Minneapolis, Minn.).

[3] = test system: caspase-1; test: Caspase-1 activation (pro-caspase-1 processing) in macrophages, Western blotting; format: cell-based, mouse; conditions: for proteolytic processing of pro-caspase-1 (mature 20 kDa subunit): WT macrophages, ligand 1-3 h, then ATP 30 min
[4] = test system: HSA-specific immunoglobulin; test: Adjuvant activity: HSA-specific serum immunoglobulin after immunization; format: in vivo, mouse
Procedure: Immunization of mice. […] Serum sample were obtained two weeks after the first immunization and one week after the boost, and antigen specific serum immunoglobulin was assessed by ELISA using antibodies against mouse immunoglobulin and isotype controls (Southern Biotechnology).

[5] = test system: mice; test: LPS-induced endotoxic shock, survival; format: in vivo, mouse; conditions: WT compared with cryopyrin−/− mice; 200 μg or 400 μg LPS
Procedure: Indicated numbers of wild-type and cryopyrin−/− mice (8 to 12 weeks old) were challenged with 200 μg (a) or 400 μg (b) of LPS and the survival over time of each mouse genotype was plotted.

[6] = test system: NF-κB, ERK and p38; test: NF-κB and MAPK (ERK, p38) activation in macrophages, Western blotting; format: cell-based, mouse; conditions: R837 5 μg ml-1
[7] = test system: IL-1β, IL-6 and TNFα in serum; test: Serum cytokines after co-injection of LPS and R837 into mice, ELISA; format: in vivo, mouse
Procedure: (200 μg) or LPS plus […] (200 μg each) and levels of IL-1β (a), IL-6 (b) or TNFα (c) in serum were determined by ELISA at the indicated times.

[8] = WT compared with cryopyrin−/− peritoneal macrophages or BMDM, 24 h stimulation, ELISA
[9] = WT compared with cryopyrin−/− macrophages
[10] = WT compared with cryopyrin−/− macrophages, R837 stimulation 24 h
[11] = WT mice, co-injection of LPS and R837 compared with each alone
[12] = cryopyrin−/− mice, LPS plus R837
[13] = cryopyrin−/− compared with WT mice, R837 100 μg and HSA 50 μg i.p., 2 weeks after immunization

With CCN(CC)CCCC(C)Nc1ccnc2cc(Cl)ccc12 (stereo not shown) [chloroquine] the “effect on production of IL-1β induced by bacterial RNA” value ([1]; treatment of macrophages with chloroquine) was “did not affect”.
With lipid A the “synergy with LPS for the secretion of IL-1β” value (“synergy with LPS” below) [2] was “not”, the “secretion of IL-1β” value [1, 8] was “induced comparable levels of IL-1β in wild-type (WT) and cryopyrin−/− macrophages” and the “activation of caspase-1” value ([3]; cryopyrin−/− macrophages) was “unimpaired in cryopyrin−/− macrophages”.
In the case of lipoteichoic acid, the “synergy with LPS” value [2] is reported as “not” and the “secretion of IL-1β” value [1, 8] is reported as “induced comparable levels of IL-1β in wild-type (WT) and cryopyrin−/− macrophages”.
Pam3CSK4 was tested, and the “secretion of IL-1β” value [1, 8] was “induced comparable levels of IL-1β in wild-type (WT) and cryopyrin−/− macrophages”.
For CC(=O)N[C@H]1C(O)O[C@H](CO)[C@@H](O)[C@@H]1O[C@H](C)C(=O)N[C@@H](C)C(=O)N[C@H](CCC(=O)O)C(N)=O (mixture of isomers) [MDP, muramyl dipeptide], the “secretion of IL-1β with brief ATP treatment” value [1, 9] was “did not induce secretion of IL-1β over background levels”, the “secretion of IL-1β” value [1, 8] was “did not induce secretion of IL-1β over background levels” and the “proteolytic processing of pro-caspase-1 (mature 20 kDa subunit)” value [3] was “did not induce proteolytic processing of pro-caspase-1”.
With 5′-TCCATGACGTTCCTGACGTT-3′ [CpG] the “synergy with LPS” value [2] was “not” and the “enhancement of HSA-specific IgG responses” value ([4]; WT compared with cryopyrin−/− mice, CpG 100 μg and HSA 50 μg, boosted 3 weeks later) was “unaffected by cryopyrin deficiency”.
In the case of lipopolysaccharide [LPS], the “lethality of high doses of LPS” value [5] is reported as “comparable lethality in WT and cryopyrin−/− mice”, the “requirement of endosomal acidification for IL-1β secretion” value [1] is reported as “not required” and the “secretion of IL-1β” value [1, 8] is reported as “induced comparable levels of IL-1β in wild-type (WT) and cryopyrin−/− macrophages”. The “activation of caspase-1” value ([3]; cryopyrin−/− macrophages) was “unimpaired in cryopyrin−/− macrophages”.
With flagellin the “synergy with LPS” value [2] was “not”.
With Pam2CGDPKHPHSF the “secretion of IL-1β” value [1, 8] was “induced comparable levels of IL-1β in wild-type (WT) and cryopyrin−/− macrophages”.
CC(C)Cn1cnc2c(N)nc3ccccc3c21 [R837, Imiquimod] was tested, and the “activation of NF-κB and MAPKs” value ([6]; TLR7- and MyD88-deficient macrophages) was “abolished in TLR7- and MyD88-deficient macrophages”, the “NF-κB, ERK and p38 activation” value ([6]; WT compared with cryopyrin−/− BMDM) was “induced comparable levels of NF-κB, ERK and p38 activation in WT and cryopyrin−/− macrophages” and the “enhancement of LPS-mediated IL-1β production” value ([2]; cryopyrin−/− macrophages) was “abrogated in cryopyrin−/− macrophages”. For the same molecule, the “requirement of endosomal acidification for IL-1β secretion” value [1] was “not required”, the “production of IL-6: need for cryopyrin” value [1, 10] was “cryopyrin was dispensable” and the “production of TNFα: need for cryopyrin” value [1, 10] was “cryopyrin was dispensable”. The “secretion of IL-1β with brief ATP treatment” value [1, 9] was “Cryopyrin is required”, the “secretion of IL-1β” value [1, 8] was “abrogated” and the “secretion of IL-18” value [1, 8] was “abrogated”. The “levels of IL-1β in serum” value ([7]; WT mice, co-administration of R837 and LPS (200 μg each) compared with each alone) was “higher levels of IL-1β in serum than injection of R837 or LPS alone”, the “serum levels of IL-6” value [7, 11] was “enhanced” and the “serum levels of TNFα” value [7, 11] was “enhanced”. For the same molecule, the “serum levels of IL-6” value [7, 12] was “Reduced levels”, the “serum levels of TNFα” value [7, 12] was “Reduced levels” and the “enhancement of the LPS response (serum IL-1β) by R837” value ([7]; cryopyrin−/− mice, LPS plus R837 200 μg each) was “abolished in cryopyrin−/− mice”. The “activation of caspase-1” value ([3]; TLR7- or MyD88-deficient macrophages) was “proceeded normally”, the “proteolytic processing of pro-caspase-1 (mature 20 kDa subunit)” value [3] was “induced in WT macrophages” and the “activation of caspase-1” value ([3]; cryopyrin−/− macrophages) was “abrogated in macrophages lacking cryopyrin”. For the same molecule, the “activation of caspase-1” value ([3]; macrophages lacking ASC) was “abrogated”, the “production of antigen specific IgG1” value [4, 13] was “exhibited a defect” and the “production of antigen specific IgG2a/c” value [4, 13] was “exhibited a defect”. The “production of antigen specific IgG3” value [4, 13] was “exhibited a defect”.
